In article PMC6920847, “2-Hydroxy-N-phenylbenzamides and Their Esters Inhibit Acetylcholinesterase and Butyrylcholinesterase” (Biomolecules, 2019):
Values joined by “and” are separate entries in the source; they are usually repeats but may differ in a detail not shown here. Equal entries are not always repeated. “Also recorded” adds a separate entry of the source. Where two headings read alike, the source gives them in different places.

Legend:
[1] = molecular target: T1, BuChE from equine serum (EqBuChE) (Equus caballus, UniProt P81908); test: Inhibition of BuChE, modified Ellman's spectrophotometric method; type: biochemical; details: for Enhancement of BuChE inhibition compared to parent 3k: ratio of IC50 values vs parent 3k
T1 construct: butyrylcholinesterase was from an equine serum; purchased Sigma-Aldrich (Prague, Czech Republic); host or cells: equine serum (natural source)
Procedure: (§1) The IC50 values were determined using the spectrophotometric Ellman’s method modified according to Zdražilová et al., which is a simple, rapid and direct method to determine the SH and -S-S- group content in proteins. This method is widely used for the screening of the efficiency of cholinesterases inhibitors. The enzymatic activity is measured indirectly by quantifying the concentration of the 5-thio-2-nitrobenzoic acid ion formed in the reaction between the thiol reagent 5,5′-dithio-bis(2-nitrobenzoic acid) and thiocholine, a product of substrate hydrolysis (i.e., acetylthiocholine; ATCH) by cholinesterases.
(§2) The enzyme activity in final reaction mixture (2000 µL) was 0.2 U/mL, concentration of acetylthiocholine (or butyrylthiocholine, BTCH) 40 µM and concentration of 5,5′-dithio-bis(2-nitrobenzoic acid) 0.1 mM for all reactions. The tested compounds were dissolved in DMSO and then diluted in demineralized water to the concentration of 1 µM. […] All measurements were carried in triplicate and the average values of reaction rate (v0-uninhibited reaction, vi-inhibited reaction) were used for construction of the dependence v0/vi vs. concentration of inhibitor. From obtained equation of regression curve, the value of IC50 was calculated (based on the definition of IC50).
(§3) Acetylcholinesterase was obtained from electric eel (Electrophorus electricus L.) and butyrylcholinesterase was from an equine serum.
(§4) Thirty-six benzamides 1–4l were evaluated as potential inhibitors of AChE from electric eel (EeAChE) and BuChE from equine serum (EqBuChE) using Ellman’s spectrophotometric method modified according to Zdražilová et al.. Their efficacy is expressed as IC50, i.e., the concentration required for 50% inhibition of the enzymatic activity. Based on inhibition of both cholinesterases, we calculated selectivity indexes (SI) as the ratio of IC50 value for AChE/IC50 value for BuChE to express the selectivity quantitatively (Table 1).

[2] = molecular target: T2, AChE from electric eel (EeAChE) (Electrophorus electricus, UniProt O42275); details: SI = IC50 for AChE/IC50 for BuChE; cited from earlier work
T2 construct: Acetylcholinesterase was obtained from electric eel (Electrophorus electricus L.); purchased Sigma-Aldrich (Prague, Czech Republic); host or cells: electric eel (natural source)

[3] = molecular target: T1, BuChE from equine serum (EqBuChE); details: mean ± SD; cited from earlier work
[4] = molecular target: T2, AChE from electric eel (EeAChE); test: Inhibition of AChE, modified Ellman's spectrophotometric method; type: biochemical, electric eel (Electrophorus electricus L.)
Procedure: as §1, §2, §3, §4

acetylcholinesterase = molecular target: T3, acetylcholinesterase (Electrophorus electricus, UniProt O42275); test: Mechanism of inhibition, dependence log% A vs. time; type: biochemical, electric eel (Electrophorus electricus L.); details: inhibitor 10, 30, 90 µM; prolonged incubation
T3 construct: Acetylcholinesterase was obtained from electric eel (Electrophorus electricus L.); purchased Sigma-Aldrich (Prague, Czech Republic); host or cells: electric eel (natural source)
Procedure: (§5) The determination of mechanism of enzyme inhibition was described in detail previously. The inhibitor 5c was evaluated at three different concentrations for each enzyme.
(§6) Based on the changes of enzyme activity in the presence of tested inhibitor during prolonged incubation, it is possible to distinguish reversible, pseudo-irreversible and irreversible inhibition. In the case of reversible inhibition, the inhibitor is bound to the enzyme for a short period of time, the activity of the enzyme goes down immediately and, after dissociation of complex enzyme-inhibitor, the enzyme activity is restored. […] For irreversible inhibition, covalent and permanent bond between enzyme and inhibitor is typical and therefore the enzyme becomes inactivated. Irreversible inhibitor decreases enzyme activity successively and the dependence log% A vs. time in the presence of inhibitor is linear.
(§7) The procedure of measurement and data evaluation were in detail described previously in the reference. From the dependence log% A vs. time the mechanism of action of tested inhibitor can be deduced.
Figure 1 The dependence log% A vs. time. Enzyme: acetylcholinesterase, derivative 5c, concentration of inhibitor: 10 µM (rhomb), 30 µM (square), 90 µM (triangle).

butyrylcholinesterase = molecular target: T4, butyrylcholinesterase (Equus caballus, UniProt P81908); test: as above; type: biochemical, equine; details: inhibitor 3, 6, 9 µM; prolonged incubation
T4 construct: butyrylcholinesterase was from an equine serum; purchased Sigma-Aldrich (Prague, Czech Republic); host or cells: equine serum (natural source)
Procedure: as §5, §6, §7
Figure 2 The dependence log% A vs. time. Enzyme: butyrylcholinesterase, derivative 5c, concentration of inhibitor: 3 µM (rhomb), 6 µM (square), 9 µM (triangle).

AChE = molecular target: T5, AChE (Electrophorus electricus, UniProt O42275); test: Type of inhibition, Lineweaver-Burk plot; type: biochemical, electric eel (Electrophorus electricus L.); details: ATCH 20–80 µM
T5 construct: Acetylcholinesterase was obtained from electric eel (Electrophorus electricus L.); purchased Sigma-Aldrich (Prague, Czech Republic); host or cells: electric eel (natural source)
Procedure: (§8) For the determination of the type of inhibition Lineweaver-Burk plot was used and the measuring procedure was similar to that for the determination of IC50 (modified Ellman’s method was used). The enzyme activity in the final reaction mixture (2000 µL) was 0.2 U/mL, a concentration of ATCH or BTCH 20–80 µM and a concentration of 5,5′-dithio-bis(2-nitrobenzoic acid) 0.1 mM. For each of the substrate concentrations, four different concentrations of inhibitor were chosen. The dependence absorbance vs. time was observed and the reaction rate was calculated. All measurements were carried in duplicate and the average values of reaction rate were used for the construction of the Lineweaver-Burk plot. From obtained equations of regression curves, the values of KM (Michaelis constant) and Vm (maximum velocity) were calculated and the type of inhibition was evaluated.
(§9) The type of inhibition could be distinguished based on the Lineweaver-Burk plot and the comparison of the kinetic parameters KM and Vm of uninhibited and inhibited reactions. The diagnostic criterion for competitive inhibition is that Vm is unaffected by inhibitor and KM for inhibited reaction is increased. All lines in Lineweaver-Burk plot share a common y-intercept. For non-competitive inhibitor KM is unchanged, but Vm of inhibited reaction is decreased. All lines in Lineweaver-Burk plot share a common x-intercept. […]

BuChE = molecular target: T6, BuChE (Equus caballus, UniProt P81908); test: Type of inhibition, Lineweaver-Burk plot; type: biochemical, equine; details: BTCH 20–80 µM
T6 construct: butyrylcholinesterase was from an equine serum; purchased Sigma-Aldrich (Prague, Czech Republic); host or cells: equine serum (natural source)
Procedure: as §8, §9

T1 sequence (P81908 whole entry): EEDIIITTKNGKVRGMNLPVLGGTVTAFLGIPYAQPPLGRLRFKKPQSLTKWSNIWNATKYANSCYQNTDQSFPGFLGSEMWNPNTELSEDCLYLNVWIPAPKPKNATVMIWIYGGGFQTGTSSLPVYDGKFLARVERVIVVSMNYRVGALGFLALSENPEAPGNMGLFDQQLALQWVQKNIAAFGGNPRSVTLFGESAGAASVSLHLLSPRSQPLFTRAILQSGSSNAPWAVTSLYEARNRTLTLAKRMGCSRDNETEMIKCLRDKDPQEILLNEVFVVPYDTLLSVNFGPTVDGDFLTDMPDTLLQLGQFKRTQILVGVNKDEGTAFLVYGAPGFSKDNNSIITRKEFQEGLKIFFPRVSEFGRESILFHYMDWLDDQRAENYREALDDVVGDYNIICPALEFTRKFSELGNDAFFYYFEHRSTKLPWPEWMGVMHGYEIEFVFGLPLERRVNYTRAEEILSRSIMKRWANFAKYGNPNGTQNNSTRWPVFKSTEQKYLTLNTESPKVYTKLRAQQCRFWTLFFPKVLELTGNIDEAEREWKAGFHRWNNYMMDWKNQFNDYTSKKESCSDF
T2 sequence (O42275 24-633): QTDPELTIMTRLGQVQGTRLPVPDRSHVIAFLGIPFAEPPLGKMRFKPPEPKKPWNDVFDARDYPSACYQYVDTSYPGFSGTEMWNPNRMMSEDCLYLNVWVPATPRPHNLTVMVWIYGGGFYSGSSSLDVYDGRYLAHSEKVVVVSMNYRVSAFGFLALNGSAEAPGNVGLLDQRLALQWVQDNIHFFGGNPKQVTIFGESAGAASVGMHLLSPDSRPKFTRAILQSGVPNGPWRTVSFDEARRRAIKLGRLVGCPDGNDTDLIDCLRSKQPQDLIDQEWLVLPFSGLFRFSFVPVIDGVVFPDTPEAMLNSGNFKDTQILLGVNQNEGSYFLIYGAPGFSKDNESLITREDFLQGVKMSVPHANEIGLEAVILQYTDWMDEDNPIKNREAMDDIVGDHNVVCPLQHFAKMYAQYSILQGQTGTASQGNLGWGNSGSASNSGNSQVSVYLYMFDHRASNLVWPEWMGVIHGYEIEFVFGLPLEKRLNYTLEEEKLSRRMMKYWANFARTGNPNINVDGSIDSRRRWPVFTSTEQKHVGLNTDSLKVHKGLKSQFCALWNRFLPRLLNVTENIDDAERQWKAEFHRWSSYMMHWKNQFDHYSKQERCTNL
T6 sequence (P81908 whole entry): as the sequence (P81908 whole entry) above
T4 sequence (P81908 whole entry): as above
T3 sequence (O42275 24-633): as the sequence (O42275 24-633) above
T5 sequence (O42275 24-633): as above

| SMILES | Enhancement of BuChE inhibition compared to parent 3k [1] | Selectivity AChE/BuChE [2] | IC50 [3] [µM] | Enhancement of AChE inhibition compared to parent 3k ([4]; ratio of IC50 values vs parent 3k) [times] | Selectivity AChE/BuChE ([4]; SI = IC50 for AChE/IC50 for BuChE, SI lower than 1 means selectivity for AChE) | IC50 ([4]; mean ± SD, n = three experiments, read-out: IC50 (EeAChE)) [µM] | IC50 ([1]; mean ± SD, n = three experiments, read-out: IC50 (EqBuChE)) | Improvement of activity against BuChE compared to phosphate 5a ([1]; phosphite 5c vs phosphate 5a) [times] | Mechanism of inhibition (AChE) (acetylcholinesterase) | Mechanism of inhibition (BuChE) (butyrylcholinesterase) | Type of inhibition (AChE) (AChE) | Type of inhibition (BuChE) (BuChE) |
| --- | --- | --- | --- | --- | --- | --- | --- | --- | --- | --- | --- | --- |
| CCOP(=O)(OCC)Oc1cc(Cl)ccc1C(=O)Nc1ccc(C(F)(F)F)cc1 [Compound 5a] | up to 20.3 times | 8.77 | 9.84 ± 0.06 |  |  |  |  |  |  |  |  |  |
| CCOP(=S)(OCC)Oc1cc(Cl)ccc1C(=O)Nc1ccc(C(F)(F)F)cc1 [Compound 5b] | up to 20.3 times | 0.50 |  | 6.6 |  |  |  |  |  |  |  |  |
| CCOP(OCC)Oc1cc(Cl)ccc1C(=O)Nc1ccc(C(F)(F)F)cc1 [Compound 5c, 5-Chloro-2-{[4-(trifluoromethyl)phenyl]carbamoyl}phenyl diethyl phosphite] | 84.2 times |  |  |  | 28.00 | 66.4 ± 1.14 | 2.4 µM and 2.37 µM | 4.2 | pseudo-irreversible inhibitor; also recorded: pseudo-irreversible inhibition | pseudo-irreversible inhibitor; also recorded: pseudo-irreversible inhibition | mixed inhibition; also recorded: mixed inhibitory mechanism | mixed inhibition; also recorded: mixed inhibitory mechanism |
